Results reported in patent publication US20200237852A1, “Small Molecule Enhancers of Paneth Cell Function and Differentiation” (Massachusetts Institute of Technology, priority 2019, published 2020).

How the values were obtained:
[1] = test system: ISC-enriched organoids in ENR+CD; experiment: 384-well secondary screen in ENR+CD incl. early vs. full treatment, secreted LYZ (LYZ.NS, LYZ.S); format: cell-based, C57BL/6 mice; conditions: 6-day ENR+CD+treatment vs ENR+CD+DMSO; cutoff 0.89, 8 replicates
[2] = test system: ENR+CD and ENR organoid populations; experiment: Population RNA-seq of organoids; format: cell-based, C57BL/6 mice; conditions: 3 days of treatment, all media conditions controlled, FDR<0.01
Source text: To further assess the potential interaction of Wnt agonist CHIR99021 (C) and Notch inhibitor DAPT (D) with XPO1 inhibitors, we carried out an experiment where we assessed bulk organoid population transcriptomes (with RNA-seq) from multiple variations on growth media, XPO1 inhibitor, and duration of treatment (FIG. 12A). To characterize the resulting cell phenotypes, we used aggregate scores of geneset enrichment (based on module scoring as implemented in^7) from the in vivo Paneth and related enteroendocrine cell populations (genesets taken from^6). We see that again for both ENR+CD treated (FIG. 12B) and ENR treated (FIG. 12C) organoid populations, XPO1 inhibition drives enrichment in Paneth cell defining genes, principally at 3 days of treatment. […]
Population RNA-seq was performed using a derivative of the Smart-Seq2 protocol for single cells^1,2. […] Libraries were pooled post-Nextera and cleaned using Agencourt AMPure SPRI beads with successive 0.7× and 0.8× ratio SPRIs and sequenced with an Illumina 75 Cycle NextSeq500/550v2 kit (Illumina FC-404-2005) with loading density at 2.2 pM, with paired end 35 cycle read structure. Samples were sequenced at an average read depth of 8.44 million reads per sample and a total of 96 samples. […]

O=C(/C=C\n1cnc(-c2cc(C(F)(F)F)cc(C(F)(F)F)c2)n1)NNc1cnccn1 [KPT-330]
validation in secondary screen (SSMD above cutoff for both LYZ.NS and LYZ.S) [1]: multiple validated doses
identity of the majority of significantly up-regulated genes relative to no treatment (DESeq2) [2]: known Paneth cell lineage-defining genes
